# Assays:
# [1] = mice; for number of micronuclei in the reticulocytes vs negative control / number of reticulocytes in peripheral blood vs negative control: 48 and 72 hours after administration
# Description: In this experiment, the Formula I compound—Ovatodiolide on the peripheral blood micronucleus was tested in mice (ICR strain). This experiment mainly tested the effect of the Formula I compound—Ovatodiolide on the ratio of the occurrence of micronucleus in the peripheral blood of the mice (in vivo), so as to evaluate the level of damages caused by directly or indirectly triggered gene mutations of erythrocyte chromosomes or mitosis. ICR mice were used as the experimental subjects of this experiment, and the experiment was divided into 5 groups, the negative control group, the positive control group (Cyclophosphamide, 60 mg/kg bw ip), the Formula I compound—Ovatodiolide low dose (0.25 g/kg bw) group, the medium Dosage (0.5 g/kg bw) group and the high dose (1 g/kg bw) group, 5 mice (male) in each group, and Ovatodiolide was fed once by a gastric tube, 48 and 72 hours after the tested substances were administered, the reticulocytes and the occurrence (%) of micronucleus in the reticulocytes in the peripheral blood of the mice were evaluated.
# [2] = test system: SARS-CoV-2 pseudovirus; assay: microbe, parasite or virus in culture; assay type: cell-based
# [3] = test system: CHO-K1 cells; assay: In vitro mammalian chromosome aberration test, with cytotoxicity test; assay type: cell-based; settings: for survival rate of the CHO-K1 cells: 24 hours
# Description: In this experiment, the chromosomal aberration test with mammalian cell in culture of the Formula I compound—Ovatodiolide was carried out. The Formula I compound—Ovatodiolide was yellowish crystals, and prepared with Dimethyl sulfoxide (DMSO) during the test. The cytotoxicity test was divided into two parts, in one part, CHO-K1 cells was reacted directly with the Formula I compound—Ovatodiolide, and in the other part, rat liver activating enzyme extract (S9) was used to simulate human metabolism, CHO-K1 cells, the rat liver activating enzyme extract (S9) and the Formula I compound—Ovatodiolide were mixed and then reacted.
# [4] = 28-day feeding (repeated dose oral) toxicity test in rats; assay type: in vivo, rats (Sprague-Dawley, S D strain)
# Description: This experiment investigated whether the Formula I compound—Ovatodiolide might cause potential side effect toxicity to human bodies for clinical safety assessment, and 28-day repeated-dose oral toxicity tests of the Formula I compound—Ovatodiolide were conducted to observe clinical side effects. The Formula I compound—Ovatodiolide was a yellowish crystal, the test purity was regarded as 99.95%, and the samples were prepared with 5% of DMSO during the tests. Rats (Sprague-Dawley, S D strain) were divided into 4 groups, the control group (5% of DMSO), the low-dose group (10 mg/kg-body weight), the medium-dose group (25 mg/kg body weight) and the high-dose group (50 mg/kg-body weight), 20 rats in each group, half males and half females, each rat was fed with a volume of 10 mL/kg-body weight, and the rats were orally fed according to their body weight on the day for 28 consecutive days. […] In view of the above test results, after the rats of the low-dose group (10 mg/kg-body weight), the medium-dose group (25 mg/kg-body weight) and the high-dose group (50 mg/kg-body weight) were orally fed respectively with the Formula I compound—Ovatodiolide for 28 days continuously, no toxic reactions was caused to various organs of the male and female rats, and the “No observed adverse effect level” (NOAEL) for the 28-day feeding toxicity test in rats was 50 mg/kg-body weight, the equivalent human dose was about 8 mg/kg-body weight.
# [5] = Single-dose oral acute toxicity test in rats; assay type: in vivo, rats (Sprague-Dawley, S D strain)
# Description: This example was a single-dose oral acute toxicity safety test of the Formula I compound—Ovatodiolide in rats, and a reference for food safety assessment was provided. […] In this experiment, single-dose oral acute toxicity tests of the Formula I compound—ovatodiolide were conducted in rats (Sprague-Dawley, S D strain). The Formula I compound—Ovatodiolide was in the form of yellowish crystals, the test purity was 99.95%, 10% of DMSO was used to prepare a solution concentration of 0.1 g/mL during the experiment, the feeding volume of each rat was 10 mL/kg body weight, the rats were fed orally based on their body weights on that day, the final dose was 1 g/kg-body weight in total, and the rats were continuously observed for 14 days after administration. […] No effects on the serum liver and kidney enzyme values of the male and female rats in the treatment group, including aspartate aminotransferase (AST), alanine aminotransferase (ALT), blood urea nitrogen (BUN), and creatinine, etc.
# [6] = test system: influenza virus; assay: Test experiments on influenza virus in contrast to Tamiflu
# [7] = test system: HIV virus; settings: Fitoterapia, 2000, 71(5): 574-576; cited from earlier work
# [8] = male and female rats, 1 g/kg-body weight oral
smiles,measurement,setting,value
"O=P1(N(CCCl)CCCl)NCCCO1 (stereo not drawn) [Cyclophosphamide, reference compound]",number of micronuclei in the reticulocytes vs negative control,[1],increased significantly
same,number of reticulocytes in peripheral blood vs negative control,[1],significantly decreased
C=C1C(=O)O[C@@H]2/C=C(\C)C[C@H]3C=C(CC/C=C(\C)CC[C@@H]12)C(=O)O3 [Ovatodiolide],inhibitory effect on coronavirus infections,[2],significant inhibitory effect on coronavirus infections at the micromolar level
same,IC50,"[2]; Severe acute respiratory syndrome-related coronavirus, Huh-7, 64 h, read-out: IC50 for inhibiting SARS-CoV-2 infections",3.73 µM
same,survival rate of the CHO-K1 cells,"[3]; 17.5 μM, without S9 (−S9)",about 65.6%
same,survival rate of the CHO-K1 cells,"[3]; 75 μM, with S9 (+S9)",about 60.3%
same,frequency of chromosomal aberration in the CHO-K1 cells vs negative control,"[3]; 12.5, 15 and 17.5 μM (−S9) and 55, 65 and 75 μM (+S9)",did not increase significantly
same,equivalent human dose of the NOAEL,"[4]; from rat NOAEL, 28-day feeding",about 8 mg/kg-body weight
same,histopathological examination of organs,"[4]; high-dose group (50 mg/kg-body weight), 28 days",no pathological changes related to organ toxicity reaction
same,"body weight changes, feed consumptions, urine, blood values, serum enzyme values and organ weights vs control","[4]; male and female rats, each treatment group, 28 days",within the normal range
same,symptoms of being poisoned or death,"[4]; rats, oral 10, 25 and 50 mg/kg-body weight, 28 days",no symptoms of being poisoned or death
same,No observed adverse effect level (NOAEL),"[4]; rats, oral, 28 consecutive days",50 mg/kg-body weight
same,number of micronuclei in the reticulocytes vs negative control,[1],no significant difference
same,number of reticulocytes in peripheral blood vs negative control,[1],no significant difference
same,micronucleus test result,[1]; each dose group,negative
same,toxicity symptoms and body weight,"[1]; single gastric tube dose 0.25, 0.5, 1 g/kg bw, 48 and 72 hours",no toxicity symptoms and no differences in the body weight
same,equivalent human dose of the single acute dose,[5]; from 1 g/Kg-body weight in rats,about 50 mg/kg-body weight
same,"blood values (WBC, RBC, Hct, MCV, MCH, MCHC, platelets, leukocyte classification)",[5]; [8],no significant abnormal changes
same,"serum liver and kidney enzyme values (AST, ALT, BUN, creatinine)",[5]; [8],No effects
same,weekly body weight and body weight gain vs control group,[5]; [8],no significant difference
same,histopathological examination of important organs,"[5]; rats, 1 g/kg-body weight oral",no histopathological changes in relation to the test substances
same,acute poisoning or death,"[5]; rats, single oral dose 1 g/Kg-body weight, observed 14 days",no acute poisoning or death
same,effect on inhibiting influenza virus,[6],excellent effect on inhibiting influenza virus
same,inhibition of HIV virus,[7],can inhibit HIV virus
